These results are taken from patent US20230104487A1, “11-(4-CHLOROPHENYL)-4-(2,3-DIHYDRO-1H-INDOLE-1-CARBONYL)-3,11-DIMETHYL-5,10,DIOXATRICYCLO[7.4.0.0,2,6,]TRIDECA-1,3,6,8-TETRAEN-13-ONE AND DERIVATIVES AS DESTABILIZER OF CRY1 FOR THE TREATMENT OF CIRCADIAN RHYTHM ASSOCIATED DISEASES AND DISORDERS” (KOC UNIVERSITESI, priority 2019, published 2023).

Assay [1] relates to Cry1−/−/Cry2−/− mouse embryonic fibroblasts. The experiment in a line: Circadian reporter assay in CRY double knockout MEFs (mPer2-dLuc). As to conditions: DKO-MEF transfected with mPer2-luc. The assay is classed as cell-based. Here is the method:
Luminescence values were recorded at 32° C. for each 30 minutes with 15 seconds integration time via Synergy H1 luminometer for a week. For LumiCycle, 400×10^3 U2-OS Bmal1-dLuc or NIH3T3 mPer2-dLuc cells were seeded to 35 mm plates and then procedure given above was followed with a change in the last step. Plates were sealed with vacuum grease and placed to LumiCycle. Each plate was recorded continuously every 10 minutes for 70 seconds at 37° C. via photomultiplier tubes. Period and amplitude data were obtained from LumiCycle Analysis software. To detect the effect of FORMULA I in the absence of CRYs, Cry1^−/−/Cry2^−/− mouse embryonic fibroblasts (CRYDKO MEFs) transiently transfected with pGL3-Per2-Luc (luciferase reporter) were used. 3×10^5 CRYDKO cells were seeded in 35 mm clear plates. Next day, cells were transfected with 4000 ng pGL3-Per2-Luc via Fugene6 transfection reagent according to the manufacturer's instruction. In short, 3:1 ratio of Fugene6 in μl against transfected DNA amount in μg was kept in transfections. 72 h after transfection cells were synchronized with DXM for two hours. Then, medium was changed with lumicycle medium having DMSO or molecule, sealed with vacuum grease, and placed to LumiCycle.
On the technique in general: Reporter assays use an easily measured gene product as a stand-in for the process of interest.

The target in assay [2] is T1, CRY2 (Homo sapiens, UniProt Q49AN0).
T1 construct: To evaluate the effect of FORMULA I on the endogenous protein and mRNA level of clock genes; endogenous in cells; host or cells: U2-OS
T1 sequence (Q49AN0 1-593): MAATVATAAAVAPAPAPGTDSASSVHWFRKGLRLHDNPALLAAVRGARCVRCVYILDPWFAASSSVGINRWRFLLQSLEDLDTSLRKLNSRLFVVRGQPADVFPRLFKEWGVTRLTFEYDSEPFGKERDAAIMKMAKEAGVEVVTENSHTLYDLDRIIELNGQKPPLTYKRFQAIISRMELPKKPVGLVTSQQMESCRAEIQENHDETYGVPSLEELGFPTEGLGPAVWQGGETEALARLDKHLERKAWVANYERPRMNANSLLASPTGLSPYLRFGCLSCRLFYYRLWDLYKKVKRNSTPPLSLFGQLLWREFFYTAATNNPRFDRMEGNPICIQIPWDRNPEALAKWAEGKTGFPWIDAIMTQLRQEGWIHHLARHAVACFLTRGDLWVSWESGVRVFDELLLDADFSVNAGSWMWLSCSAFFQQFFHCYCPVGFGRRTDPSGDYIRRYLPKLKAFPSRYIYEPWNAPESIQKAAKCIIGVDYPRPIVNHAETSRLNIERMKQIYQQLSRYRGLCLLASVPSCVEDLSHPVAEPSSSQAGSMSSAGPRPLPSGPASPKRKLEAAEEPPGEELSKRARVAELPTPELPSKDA
Put plainly: Protein immunoblot, unsynchronized U2-OS cells, CRY2. The assay is classed as cell-based. The conditions noted are these: Western blot. The procedure: Cells were lysed in RIPA buffer (50 mM Tris, 150 mM NaCl, 1% Triton-X, 0.1% SDS) with fresh Protease inhibitor cocktail (PIC). After centrifugation at 13000 rpm for 15 minutes at 4° C., supernatant was used to determine the protein amount using Pierce Protein Assay (Thermo Scientific) according to the manufacturer's instruction. Mice liver samples were homogenized and lysed with Dounce homogenizer and RIPA buffer. After homogenization samples were incubated 10 minutes on ice. After centrifugation 13000 rpm 15 minutes at 4° C. supernatant was used for the whole cell lysate. Subcellular fractionation of liver samples: Liver samples were homogenized with cytosolic lysis buffer (10 mM HEPES pH 7.9, 10 mM KCl, 0.1 mM EDTA, 0.05% NP40, proteasome inhibitor) by pipetting 40 times with a cut tip. Then samples were incubated 10 minutes on ice and centrifuged for 3 minutes at 3000 rpm at 4° C. Supernatant was saved in a new tube, and pellet was processed for the nuclear fraction. Supernatant was centrifuged at 13000 rpm for 3 minutes at 4° C. where new supernatant saved as the cytosolic fraction. […] ECL buffer system (Advansta WesternBright) was used to visualize HRP chemi-luminescence via BioRad ChemiDoc Touch visualizer.
(In western blotting, separated proteins are transferred to a membrane and probed.)

On to `Cc1c(C(=O)N2CCc3ccccc32)oc2ccc3c(c12)C(=O)CC(C)(c1ccc(Cl)cc1)O3` (centres unmarked) [FORMULA I, 11-(4-chlorophenyl)-4-(2,3-dihydro-1H-indole-1-carbonyl)-3,11-dimethyl-5,10,dioxatricyclo[7.4.0.0,2,6,]trideca-1,3,6,8-tetraen-13-one], for which the “effect on rhythm in absence of CRYs” value in assay [1] is “had no effect”. The “level of CRY2” value in assay [2] is reported as “CRY2 levels were comparable”.
